Test results published in PubChem BioAssay AID330 (DTP/NCI, 2004).
Where “and” joins values, the source holds several entries; their conditions need not be identical. Equal values may be shown once. Inconclusive results and toxic doses are left out. How the source made its calls: active means survival T/C of 150% or more; inactive means T/C below 125% in these data.

Test system: P388 leukemia ip, CD2F1 mice, survival T/C
Assay: NCI In Vivo Anticancer Drug Screen. Data for tumor model P388 Leukemia (intraperitoneal) in CD2F1 (CDF1) mice
Conditions: endpoint: median survival time, higher = longer survival
In short: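 Mice carrying the transplanted tumor received test compound or vehicle. Survival was recorded in each group, and the value is the treated-group measurement divided by that of the vehicle-treated control group.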

[1] = dose: 50.0 mg/kg/injection, schedule: Q01DX009 (ip), vehicle: Klucel (hydroxypropylcellulose) (HPC)
[2] = dose: 60.0 mg/kg/injection, schedule: Q01DX005 (ip), vehicle: saline with Tween-80
[3] = dose: 120.0 mg/kg/injection, schedule: Q01DX005 (ip), vehicle: saline with Tween-80
[4] = dose: 50.0 mg/kg/injection, schedule: Q01DX005 (ip), vehicle: saline with Tween-80
[5] = dose: 100.0 mg/kg/injection, schedule: Q01DX005 (ip), vehicle: saline with Tween-80
[6] = dose: 60.0 mg/kg/injection, schedule: Q01DX005 (ip), vehicle: saline
[7] = dose: 120.0 mg/kg/injection, schedule: Q01DX005 (ip), vehicle: saline
[8] = dose: 50.0 mg/kg/injection, schedule: Q01DX009 (ip), vehicle: saline
[9] = dose: 100.0 mg/kg/injection, schedule: Q01DX009 (ip), vehicle: saline
[10] = dose: 100.0 mg/kg/injection, schedule: Q01DX001 (ip), vehicle: saline with Tween-80
[11] = dose: 200.0 mg/kg/injection, schedule: Q01DX001 (ip), vehicle: saline with Tween-80

Measured: T/C

O=C(CS)Nc1ccccn1
inactive: dose: 12.5 mg/kg/injection, schedule: Q01DX009 (ip), vehicle: Klucel (hydroxypropylcellulose) (HPC) 104 % of control | dose: 25.0 mg/kg/injection, schedule: Q01DX009 (ip), vehicle: Klucel (hydroxypropylcellulose) (HPC) 103 % of control | [1] 103 % of control and 114 % of control

CC(=O)OCC1OC(Oc2cccc(C=C(C(C)=O)C(C)=O)c2)C(OC(C)=O)C(OC(C)=O)C1OC(C)=O (stereo not drawn)
inactive: dose: 50.0 mg/kg/injection, schedule: Q01DX005 (ip), vehicle: Klucel (hydroxypropylcellulose) (HPC) 100 % of control | dose: 100.0 mg/kg/injection, schedule: Q01DX005 (ip), vehicle: Klucel (hydroxypropylcellulose) (HPC) 98 % of control | dose: 200.0 mg/kg/injection, schedule: Q01DX005 (ip), vehicle: Klucel (hydroxypropylcellulose) (HPC) 105 % of control

O=C(O)c1cc(N=C=S)ccc1-c1c2ccc(=O)cc-2oc2cc(O)ccc12
inactive: dose: 12.5 mg/kg/injection, schedule: Q01DX005 (ip), vehicle: saline + Tween-80 + alcohol 105 % of control | dose: 25.0 mg/kg/injection, schedule: Q01DX005 (ip), vehicle: saline + Tween-80 + alcohol 105 % of control | dose: 50.0 mg/kg/injection, schedule: Q01DX005 (ip), vehicle: saline + Tween-80 + alcohol 105 % of control | [2] 114 % of control | [3] 115 % of control

Cc1ccc2cccc(C(=O)N(C)C)c2[n+]1C
inactive: dose: 31.2 micrograms/kg/injection, schedule: Q04DX002 (ip), vehicle: saline 100 % of control | dose: 62.5 micrograms/kg/injection, schedule: Q04DX002 (ip), vehicle: saline 103 % of control

O=C(NCCCCOc1ccccc1[N+](=O)[O-])OCc1ccccc1
inactive: [4] 101 % of control | [5] 97 % of control | dose: 200.0 mg/kg/injection, schedule: Q01DX005 (ip), vehicle: saline with Tween-80 101 % of control

O=C(OCCO)c1c(Cl)c(Cl)c(Cl)c(Cl)c1-c1c2cc(Br)c(=O)c(Br)c-2oc2c(Br)c(O)c(Br)cc12
inactive: [6] 94 % of control | [7] 92 % of control

CCOC(C#CC(=O)C(C)C)OCC
inactive: [6] 101 % of control | [7] 98 % of control | dose: 240.0 mg/kg/injection, schedule: Q01DX005 (ip), vehicle: saline 101 % of control

O=C1CC(c2ccccc2)C(c2ccccc2)C1 (stereo not drawn)
inactive: [1] 94 % of control | dose: 100.0 mg/kg/injection, schedule: Q01DX009 (ip), vehicle: Klucel (hydroxypropylcellulose) (HPC) 97 % of control | dose: 200.0 mg/kg/injection, schedule: Q01DX009 (ip), vehicle: Klucel (hydroxypropylcellulose) (HPC) 93 % of control

O=c1[nH]c2nc(SCc3ccccc3)n(Cc3ccccc3)c2c(=O)n1OS(=O)(=O)c1ccccc1
inactive: [2] 98 % of control | [3] 90 % of control | dose: 240.0 mg/kg/injection, schedule: Q01DX005 (ip), vehicle: saline with Tween-80 90 % of control

NCCC1C2CC3CC(C2)CC1C3 (stereo not drawn)
inactive: [8] 88 % of control | [9] 88 % of control

[Cu+2].[O-]c1ccccc1C=NCC(O)CN=Cc1ccccc1[O-] (stereo not drawn)
inactive: dose: 3.75 mg/kg/injection, schedule: Q01DX005 (ip), vehicle: saline with Tween-80 97 % of control | dose: 7.5 mg/kg/injection, schedule: Q01DX005 (ip), vehicle: saline with Tween-80 104 % of control

CCOC(=O)c1ccccn1
inactive: dose: 12.5 mg/kg/injection, schedule: Q01DX009 (ip), vehicle: saline 95 % of control | dose: 25.0 mg/kg/injection, schedule: Q01DX009 (ip), vehicle: saline 98 % of control | [8] 101 % of control | [9] 100 % of control

Nc1ncnc2c1ccn2CC(O)CO (stereo not drawn)
inactive: dose: 50.0 mg/kg/injection, schedule: Q01DX005 (ip), vehicle: distilled water + alcohol 101 % of control | dose: 100.0 mg/kg/injection, schedule: Q01DX005 (ip), vehicle: distilled water + alcohol 100 % of control | dose: 200.0 mg/kg/injection, schedule: Q01DX005 (ip), vehicle: distilled water + alcohol 101 % of control

CCCC(C)(C(=O)Nc1ccc2nc(C)cc(N)c2c1)C(=O)Nc1ccc2nc(C)cc(N)c2c1
inactive: [4] 94 % of control | [5] 96 % of control

c1cc(Nc2ccc(Nc3ccc(CN4CCCCC4)cc3)cc2)ccc1CN1CCCCC1
inactive: dose: 12.5 mg/kg/injection, schedule: Q01DX009 (ip), vehicle: saline + Tween-80 + alcohol 105 % of control | dose: 12.5 mg/kg/injection, schedule: Q01DX009 (ip), vehicle: saline with Tween-80 103 % of control | dose: 25.0 mg/kg/injection, schedule: Q01DX009 (ip), vehicle: saline + Tween-80 + alcohol 111 % of control and 114 % of control | dose: 25.0 mg/kg/injection, schedule: Q01DX009 (ip), vehicle: saline with Tween-80 107 % of control | dose: 50.0 mg/kg/injection, schedule: Q01DX009 (ip), vehicle: saline + Tween-80 + alcohol 114 % of control and 115 % of control | dose: 50.0 mg/kg/injection, schedule: Q01DX009 (ip), vehicle: saline with Tween-80 111 % of control | dose: 100.0 mg/kg/injection, schedule: Q01DX009 (ip), vehicle: saline + Tween-80 + alcohol 117 % of control and 118 % of control | dose: 100.0 mg/kg/injection, schedule: Q01DX009 (ip), vehicle: saline with Tween-80 99 % of control | dose: 200.0 mg/kg/injection, schedule: Q01DX009 (ip), vehicle: saline + Tween-80 + alcohol 124 % of control | dose: 200.0 mg/kg/injection, schedule: Q01DX009 (ip), vehicle: saline with Tween-80 106 % of control | dose: 400.0 mg/kg/injection, schedule: Q01DX009 (ip), vehicle: saline with Tween-80 114 % of control

COC(=O)C1=C/CCCN(CCC2OCC(CBr)O2)/C=C\1C(=O)OC (stereo not drawn)
inactive: [10] 99 % of control | [11] 102 % of control | dose: 400.0 mg/kg/injection, schedule: Q01DX001 (ip), vehicle: saline with Tween-80 98 % of control

CC(=O)OC(C)C1C2=C(C(=O)CC1(C)O)C(=O)c1c(ccc(-c3ccc4c(c3O)C(=O)C3=C(C4=O)C(C(C)OC(C)=O)C(C)(O)CC3=O)c1O)C2=O (stereo not drawn)
inactive: dose: 3.13 mg/kg/injection, schedule: Q01DX009 (ip), vehicle: saline with Tween-80 122 % of control | dose: 6.25 mg/kg/injection, schedule: Q01DX009 (ip), vehicle: saline with Tween-80 119 % of control

CCCCCOP(=O)(N=[N+]=[N-])OCCCCC
inactive: dose: 0.78 mg/kg/injection, schedule: Q01DX009 (ip), vehicle: saline with Tween-80 98 % of control | dose: 1.56 mg/kg/injection, schedule: Q01DX009 (ip), vehicle: saline with Tween-80 98 % of control

O=C=N[Si](c1ccccc1)(c1ccccc1)c1ccccc1
inactive: [10] 96 % of control | [11] 89 % of control

C=C(C)C(=O)OC1CCC2(C)C(CCC3C2CCC2(C)C(c4ccc(=O)oc4)CC4OC432)C1 (stereo not drawn)
inactive: dose: 1.25 mg/kg/injection, schedule: Q01DX009 (ip), vehicle: saline with Tween-80 98 % of control | dose: 2.5 mg/kg/injection, schedule: Q01DX009 (ip), vehicle: saline with Tween-80 100 % of control | dose: 5.0 mg/kg/injection, schedule: Q01DX009 (ip), vehicle: saline with Tween-80 122 % of control | dose: 10.0 mg/kg/injection, schedule: Q01DX009 (ip), vehicle: saline with Tween-80 106 % of control | dose: 20.0 mg/kg/injection, schedule: Q01DX009 (ip), vehicle: saline with Tween-80 100 % of control

O=S(=O)(Nc1nccs1)c1ccc(NCc2c3ccccc3nc3ccccc23)cc1
inactive: dose: 100.0 mg/kg/injection, schedule: Q04DX002 (ip), vehicle: Klucel (hydroxypropylcellulose) (HPC) 101 % of control | dose: 200.0 mg/kg/injection, schedule: Q04DX002 (ip), vehicle: Klucel (hydroxypropylcellulose) (HPC) 100 % of control | dose: 400.0 mg/kg/injection, schedule: Q04DX002 (ip), vehicle: Klucel (hydroxypropylcellulose) (HPC) 105 % of control
